Experimental data as given in US9902739B2, “Small molecule inhibitors of G protein coupled receptor 6 kinases polypeptides” (Mayo Foundation for Medical Education and Research, priority 2014, dated 2018).

Target: T1, GRK6, recombinant full-length GST-tagged human protein (Homo sapiens, UniProt P43250)
T1 construct: Enzyme: 20 nM GRK6, recombinant full-length GST-tagged human protein; GST
Assay: GRK6 assay, IC50 determination (8-point concentration-response)
Format: biochemical
Description: The following assay conditions were used.
Buffer: 50 mM TRIS-HCl, pH 7.5, 5 mM MgCl2, 2 mM DTT, 0.01% Triton X-100, 10 μM Na3VO4, 10 μM b-GP, 1% DMSO
Enzyme: 20 nM GRK6, recombinant full-length GST-tagged human protein
Peptide substrate (Peptide 216): 1 μM
One hundred two compounds (1-1-1-102) were further characterized by determining IC50 values in a GRK6 assay. This screen has been previously described in WO 2013/063458, which is incorporated by reference in its entirety herein. Briefly, the following activities were performed: 8-point concentration-response determinations in singlicate wells (top concentration=60 μM, 3-fold dilution steps); Repeat tests for QC failed or inconclusive compounds; and Repeat tests (titrate down) for compounds with >50% inhibition at all tested concentrations.
Twelve compounds (2-1-2-12) were further characterized by determining the IC50 values in a GRK6 assay. This screen has been previously described in WO 2013/063458, which is incorporated by reference in its entirety herein. Specific activities were performed as described above (Example 18).
Thirty-six compounds (3-1-3-36) were further characterized by determining the IC50 values in a GRK6 assay. This screen has been previously described in WO 2013/063458, which is incorporated by reference in its entirety herein. Specific activities were performed as described above (Example 18).
Fifty-four compounds (4-1-4-54) were further characterized by determining the IC50 values in a GRK6 assay. This screen has been previously described in WO 2013/063458, which is incorporated by reference in its entirety herein. Specific activities were performed as described above (Example 18).

[1] = Series 1 (Table 11), 20 nM GRK6, ATP 12 μM (Km), Peptide 216 1 μM, incubation 7 h
[2] = Series 4 (Table 14), conditions as Example 18
[3] = Series 3 (Table 13), conditions as Example 18

T1 sequence (P43250 whole entry): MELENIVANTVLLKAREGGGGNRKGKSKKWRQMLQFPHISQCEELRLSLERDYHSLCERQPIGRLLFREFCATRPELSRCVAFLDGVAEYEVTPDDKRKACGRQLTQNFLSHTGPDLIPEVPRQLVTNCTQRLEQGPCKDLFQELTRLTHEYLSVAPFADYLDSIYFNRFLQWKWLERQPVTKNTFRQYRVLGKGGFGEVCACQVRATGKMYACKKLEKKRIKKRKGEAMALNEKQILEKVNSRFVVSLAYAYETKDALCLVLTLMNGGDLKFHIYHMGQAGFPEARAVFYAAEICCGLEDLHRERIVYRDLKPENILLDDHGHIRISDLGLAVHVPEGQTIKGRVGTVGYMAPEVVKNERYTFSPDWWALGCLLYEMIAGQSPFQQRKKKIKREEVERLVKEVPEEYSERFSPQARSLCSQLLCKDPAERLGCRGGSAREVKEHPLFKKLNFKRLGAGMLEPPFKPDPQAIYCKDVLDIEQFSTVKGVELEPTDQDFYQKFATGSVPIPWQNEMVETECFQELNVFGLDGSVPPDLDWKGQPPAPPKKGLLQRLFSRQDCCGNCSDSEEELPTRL

IC50 [1]	Compound	other results
241 nM	COc1ccc2cc(-c3ccc(-c4nnc(SCC(=O)O)[nH]4)o3)ccc2c1 [Compound 1-16]	
	O=C(O)CSc1nnc(-c2ccc(C(F)(F)F)nc2)[nH]1 [Compound 4-48]	IC50 [2]: > 54000 nM
260 nM	O=C(O)CSc1nnc(-c2ccc(-c3cc(Cl)cc(OCc4ccccc4)c3)o2)[nH]1 [Compound 1-20]	
314 nM	O=C(O)CSc1nnc(-c2ccc(-c3ccc(F)c(Cl)c3)o2)[nH]1 [Compound 1-29]	
126 nM	O=C(O)CSc1nnc(-c2ccc(-c3cccc(OCc4cccc([N+](=O)[O-])c4)c3)o2)[nH]1 [Compound 1-2]	
	O=C(O)CSc1nnc(-c2ccc3cccnc3n2)[nH]1 [Compound 4-45]	IC50 [2]: > 86000 nM
813 nM	O=C(O)CSc1nnc(-c2ccc(-c3ccc(Br)cc3)o2)[nH]1 [Compound 1-68]	
	Cn1c(-c2nnc(SCC(=O)O)[nH]2)cc2ccccc21 [Compound 4-34]	IC50 [2]: 38800 nM
	N#Cc1cccc(-c2ccc(-c3nnc(SCc4nnn[nH]4)[nH]3)o2)c1 [Compound 3-20]	IC50 [3]: 3620 nM
	COc1cc(-c2ccc(-c3nnc(SCc4nnn[nH]4)[nH]3)o2)cc(C(F)(F)F)c1 [Compound 3-13]	IC50 [3]: 2160 nM
234 nM	O=C(O)CSc1nnc(-c2ccc(-c3cnc4ccccc4c3)o2)[nH]1 [Compound 1-15]	
402 nM	COc1cccc(-c2ccc(-c3nnc(SCC(=O)O)[nH]3)o2)c1 [Compound 1-44]	
1210 nM	O=C(O)CSc1nnc(-c2ccc(-c3ccc[nH]3)o2)[nH]1 [Compound 1-80]	
	CS(=O)(=O)Nc1ccc(-c2ccc(-c3nnc(SCc4nnn[nH]4)[nH]3)o2)cc1 [Compound 3-21]	IC50 [3]: 3710 nM
79 nM	O=C(O)CSc1nnc(-c2ccc(-c3ccc4[nH]cc(-c5ccccc5)c4c3)o2)[nH]1 [Compound 1-1]	
1800 nM	Cn1ccc2c(-c3ccc(-c4nnc(SCC(=O)O)[nH]4)o3)cccc21 [Compound 1-87]	
311 nM	O=C(O)CSc1nnc(-c2ccc(-c3cc(Cl)ccc3F)o2)[nH]1 [Compound 1-28]	
	c1ccc(-c2ccc(-c3nnc(SCc4nnn[nH]4)[nH]3)o2)cc1 [Compound 3-28]	IC50 [3]: 6210 nM
617 nM	O=C(O)CSc1nnc(-c2ccc(-c3cccc([N+](=O)[O-])c3)o2)[nH]1 [Compound 1-59]	
	O=C(O)CSc1nnc(-c2ccc(N3CCOCC3)nc2)[nH]1 [Compound 4-22]	IC50 [2]: 11300 nM
1440 nM	O=C(O)CSc1nnc(-c2ccc(-c3cccc(OCc4ccc(OC(F)(F)F)c(Cl)c4)c3)o2)[nH]1 [Compound 1-84]	
187 nM	COc1ccc2cc(C#Cc3ccc(-c4nnc(SCC(=O)O)[nH]4)o3)ccc2c1 [Compound 1-11]	
	O=[N+]([O-])c1cc(-c2ccccc2)cc(-c2nnc(SCc3nnn[nH]3)[nH]2)c1 [Compound 3-36]	IC50 [3]: 9050 nM
	CN(C)S(=O)(=O)c1cccc(-c2ccc(-c3nnc(SCc4nnn[nH]4)[nH]3)o2)c1 [Compound 3-34]	IC50 [3]: 9090 nM

IC50 [1]	Compound	other results
	Cn1ncc(-c2nnc(SCC(=O)O)[nH]2)c1-c1ccccc1 [Compound 4-14]	IC50 [2]: 5700 nM
6710 nM	O=C(O)CSc1nnc(-c2ccc(C(c3ccccc3)c3ccccc3)o2)[nH]1 [Compound 1-101]	
362 nM	CCOc1ccc2ccc(-c3ccc(-c4nnc(SCC(=O)O)[nH]4)o3)cc2c1 [Compound 1-38]	
875 nM	CO/N=C/c1cc(-c2ccc(-c3nnc(SCC(=O)O)[nH]3)o2)ccc1OC [Compound 1-71]	
	c1ccc2ncc(-c3ccc(-c4nnc(SCc5nnn[nH]5)[nH]4)o3)cc2c1 [Compound 3-6]	IC50 [3]: 1100 nM
734 nM	COc1ccc(-c2ccc(-c3nnc(SCC(=O)O)[nH]3)o2)cc1/C=N/OCc1ccccc1 [Compound 1-66]	
	COc1cccc(-c2nnc(SCC(=O)O)[nH]2)n1 [Compound 4-32]	IC50 [2]: 32500 nM
131 nM	O=C(O)CSc1nnc(-c2ccc(-c3ccc4[nH]c5ccccc5c4c3)o2)[nH]1 [Compound 1-3]	
186 nM	O=C(O)CSc1nnc(-c2ccc(-c3cc(Cl)cc(Cl)c3)o2)[nH]1 [Compound 1-10]	
327 nM	O=C(O)CSc1nnc(-c2ccc(-c3cc4ccccc4o3)o2)[nH]1 [Compound 1-32]	
	CS(=O)(=O)Nc1cccc(-c2ccc(-c3nnc(SCc4nnn[nH]4)[nH]3)o2)c1 [Compound 3-25]	IC50 [3]: 4660 nM
711 nM	Cc1ccc(-c2ccc(-c3nnc(SCC(=O)O)[nH]3)o2)cc1[N+](=O)[O-] [Compound 1-65]	
364 nM	O=C(O)CSc1nnc(-c2ccc(-c3cc(O)cc(F)c3)o2)[nH]1 [Compound 1-39]	
359 nM	O=C(O)CSc1nnc(-c2ccc(-c3cccc(Cl)c3)o2)[nH]1 [Compound 1-36]	
3330 nM	O=C(O)CSc1nnc(-c2ccc(Br)o2)[nH]1 [Compound 1-97]	
	O=C(O)CSc1cc(-c2ccc(-c3ccc(Cl)c(Cl)c3)s2)[nH]n1 [Compound 2-2]	IC50 (Series 2 (Table 12), conditions as Example 18): 402 nM
	Fc1cc(F)cc(-c2ccc(-c3nnc(SCc4nnn[nH]4)[nH]3)o2)c1 [Compound 3-18]	IC50 [3]: 3310 nM
	CNS(=O)(=O)c1ccc(-c2ccc(-c3nnc(SCc4nnn[nH]4)[nH]3)o2)cc1 [Compound 3-22]	IC50 [3]: 3780 nM
	O=C(O)CSc1nnc(-c2cnn(-c3cccc(Cl)c3)c2)[nH]1 [Compound 4-6, 2-((5-(1-(3-chlorophenyl)-1H-pyrazol-4-yl)-4H-1,2,4-triazol-3-yl)thio)acetic acid]	IC50 [2]: 2010 nM
	Cc1nc[nH]c1-c1nnc(SCC(=O)O)[nH]1 [Compound 4-50]	IC50 [2]: > 100000 nM
	FC(F)(F)c1cc(-c2ccc(-c3nnc(SCc4nnn[nH]4)[nH]3)o2)cc2cccnc12 [Compound 3-4]	IC50 [3]: 881 nM
	O=C(O)CSc1nnc(-c2[nH]ncc2Br)[nH]1 [Compound 4-23]	IC50 [2]: 12300 nM
	FC(F)(F)c1cc(-c2ccc(-c3nnc(SCc4nnn[nH]4)[nH]3)o2)ccc1Cl [Compound 3-19]	IC50 [3]: 3570 nM
	Cc1c(-c2nnc(SCC(=O)O)[nH]2)cnn1C [Compound 4-38]	IC50 [2]: 95400 nM

IC50 [1]	Compound	other results
	O=c1[nH]c2ccc(-c3ccc(-c4nnc(SCc5nnn[nH]5)[nH]4)o3)cc2[nH]1 [Compound 3-10]	IC50 [3]: 1510 nM
413 nM	NS(=O)(=O)c1cccc(-c2ccc(-c3nnc(SCC(=O)O)[nH]3)o2)c1 [Compound 1-45]	
195 nM	O=C(O)CSc1nnc(-c2ccc(-c3cccc(OCc4cccc(OC(F)F)c4)c3)o2)[nH]1 [Compound 1-13]	
636 nM	O=C(O)CSc1nnc(-c2ccc(-c3cccc(O)c3)o2)[nH]1 [Compound 1-62]	
	O=C(O)CSc1nnc(-c2ccc3ccccc3n2)[nH]1 [Compound 4-25]	IC50 [2]: 13000 nM
595 nM	O=C(O)CSc1nnc(-c2ccc(-c3cccc(C(F)(F)F)c3)o2)[nH]1 [Compound 1-56]	
	COc1cc(F)cc(-c2ccc(-c3nnc(SCc4nnn[nH]4)[nH]3)o2)c1 [Compound 3-17]	IC50 [3]: 2860 nM
269 nM	O=C(O)CSc1nnc(-c2ccc(-c3ccc4cc(-c5ccccc5)[nH]c4c3)o2)[nH]1 [Compound 1-22]	
	Cc1nc(C)c(-c2nnc(SCC(=O)O)[nH]2)s1 [Compound 4-43]	IC50 [2]: > 100000 nM
421 nM	O=C(O)CSc1nnc(-c2ccc(-c3ccc4cc[nH]c4c3)o2)[nH]1 [Compound 1-46]	
	O=C(O)CSc1nnc(-c2ccc(Oc3ccccc3)nc2)[nH]1 [Compound 4-20]	IC50 [2]: 9210 nM
	O=C(O)CSc1nnc(-c2cccnc2N2CCOCC2)[nH]1 [Compound 4-41]	IC50 [2]: > 100000 nM
737 nM	CC(C)Oc1cccc(-c2ccc(-c3nnc(SCC(=O)O)[nH]3)o2)c1 [Compound 1-67]	
	CN(C)c1ncc(-c2nnc(SCC(=O)O)[nH]2)cn1 [Compound 4-17]	IC50 [2]: 7100 nM
458 nM	COc1ccc2cc(-c3oc(-c4nnc(SCC(=O)O)[nH]4)cc3Br)ccc2c1 [Compound 1-49]	
	O=C(O)CSc1nnc(-c2ccc(-c3ccc4ccccc4c3)s2)[nH]1 [Compound 4-10]	IC50 [2]: 2980 nM
137 nM	O=C(O)CSc1nnc(-c2ccc(-c3cccc4[nH]c(-c5ccccc5)cc34)o2)[nH]1 [Compound 1-5]	
	CC(=O)c1cccc(-c2ccc(-c3nnc(SCc4nnn[nH]4)[nH]3)o2)c1 [Compound 3-15]	IC50 [3]: 2480 nM
	Cc1ncc(-c2nnc(SCC(=O)O)[nH]2)cn1 [Compound 4-30]	IC50 [2]: 27800 nM
699 nM	Cn1ncc2ccc(-c3ccc(-c4nnc(SCC(=O)O)[nH]4)o3)cc21 [Compound 1-63, 2-((5-(5-(1-methyl-1H-indazol-6-yl)furan-2-yl)-4H-1,2,4-triazol-3-yl)thio)acetic acid]	
	COc1ccc2cc(-c3ccc(-c4nnc(SCc5nnn[nH]5)[nH]4)o3)ccc2c1 [Compound 3-11]	IC50 [3]: 1530 nM
	c1cc2ccc(-c3ccc(-c4nnc(SCc5nnn[nH]5)[nH]4)o3)cc2[nH]1 [Compound 3-12]	IC50 [3]: 1580 nM
8250 nM	COC(=O)CSc1nnc(-c2ccc(C#Cc3ccc4ccccc4c3)o2)[nH]1 [Compound 1-102]	
250 nM	N#Cc1ccc2[nH]c(-c3ccc(-c4nnc(SCC(=O)O)[nH]4)o3)cc2c1 [Compound 1-18]	
